Tested on: PMS1
Assay: Mini-Gene Reporter Assay—PMS1 (firefly luciferase mini-gene reporter transiently transfected into HEK293 cells)
Format: cell-based
Conditions: Homo sapiens; at 5 uM; mini-gene firefly luciferase reporter in HEK293 cells; read-out: PMS1 % Effect at 5 uM
How it was run: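 Luminescence (RLU) read-out of exon inclusion: compound dilutions, tested in duplicate, act on transiently transfected HEK293 cells carrying a firefly luciferase reporter fused downstream of the PMS1 skipped-exon region. Potency derived by Levenberg-Marquardt curve fitting, with percent effect at 5 μM.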

| Structure (SMILES) | activation at 5 µM |
| --- | --- |
| CCOc1cc2nn(C)cc2cc1C(=O)Nc1cnc(NC2CCCNC2C)cn1 (stereo not drawn) [Compound 319] | < 50% |
| CCOc1cc2nn(C)cc2cc1C(=O)Nc1cnc(N2CC34CCCC3(CNC4)C2)cn1 (stereo not drawn) [Compound 320] | < 50% |
| CCOc1cc2nn(C)cc2cc1C(=O)Nc1cnc(N2CC(N)CC2C)cn1 (stereo not drawn) [Compound 321] | > 75% |
| CCOc1cc2nn(C)cc2cc1C(=O)Nc1cnc(NCC2C3CNCC32)cn1 (stereo not drawn) [Compound 322] | < 50% |
| CCOc1cc2nn(C)cc2cc1C(=O)Nc1cnc(NC2CNCC(C)C2)cn1 (stereo not drawn) [Compound 323] | < 50% |
| CCOc1cc2nn(C)cc2cc1C(=O)Nc1cnc(NC2C=CCNC2)cn1 (stereo not drawn) [Compound 324] | < 50% |
| CCOc1cc2nn(C)cc2cc1C(=O)Nc1cnc(N2[C@H](CN)C[C@@H]3CCC[C@@H]32)cn1 [Compound 325] | < 50% |
| CCOc1cc2nn(C)cc2cc1C(=O)Nc1cnc(N2CC(N)C(C)(C)C2)cn1 (stereo not drawn) [Compound 326] | > 75% |
| CCOc1cc2nn(C)cc2cc1C(=O)Nc1cnc(NCC[C@@H]2C[C@H](OC)CN2)cn1 [Compound 327] | < 50% |
| CCOc1cc2nn(C)cc2cc1C(=O)Nc1cnc(NC(C)CNC)cn1 (stereo not drawn) [Compound 328] | < 50% |
| CCOc1cc2nn(C)cc2cc1C(=O)Nc1cnc(NCC2CCC3(CCNCC3)CC2)cn1 [Compound 329] | < 50% |
| CCOc1cc2nn(C)cc2cc1C(=O)Nc1cnc(N2CC(CO)C3(CNC3)C2)cn1 (stereo not drawn) [Compound 330] | < 50% |
| CCOc1cc2nn(C)cc2cc1C(=O)Nc1cnc(N2CC34CCCCC3(CNC4)C2)cn1 (stereo not drawn) [Compound 331] | < 50% |
| CCOc1cc2nn(C)cc2cc1C(=O)Nc1cnc(N2CCCNC(C)C2)cn1 (stereo not drawn) [Compound 332] | > 75% |
| CCOc1cc2nn(C)cc2cc1C(=O)Nc1cnc(NCC[C@H]2CCNC2)cn1 [Compound 333] | < 50% |
| CCOc1cc2nn(C)cc2cc1C(=O)Nc1cnc(NCc2ccc(CN3CCNCC3)cc2)cn1 [Compound 334] | < 50% |
| CCOc1cc2nn(C)cc2cc1C(=O)Nc1cnc(NCC2CCNCC2(F)F)cn1 (stereo not drawn) [Compound 335] | < 50% |
| CCOc1cc2nn(C)cc2cc1C(=O)Nc1cnc(N2CC3(CNCCO3)C2)cn1 [Compound 337] | < 50% |
| CCOc1cc2nn(C)cc2cc1C(=O)Nc1cnc(N2CCC(C3CCCN3)CC2)cn1 (stereo not drawn) [Compound 338] | > 75% |
| CCOc1cc2nn(C)cc2cc1C(=O)Nc1cnc(N2CCCC(NCCO)C2)cn1 (stereo not drawn) [Compound 339] | > 75% |
| CCOc1cc2nn(C)cc2cc1C(=O)Nc1cnc(N2CCC[C@H]3CNC[C@H]32)cn1 [Compound 340] | 50 to 75% |
| CCOc1cc2nn(C)cc2cc1C(=O)Nc1cnc(N2CCOC3(CCNC3)C2)cn1 (stereo not drawn) [Compound 341] | < 50% |
| CCOc1cc2nn(C)cc2cc1C(=O)Nc1cnc(N2C[C@@H](F)C[C@H]2CNC)cn1 [Compound 342] | < 50% |
| CCOc1cc2nn(C)cc2cc1C(=O)Nc1cnc(N2CCC3(CCCN3)CC2)cn1 [Compound 343] | > 75% |
| CCNCCN(CC)c1cnc(NC(=O)c2cc3cn(C)nc3cc2OCC)cn1 [Compound 344] | < 50% |
| CCOc1cc2nn(C)cc2cc1C(=O)Nc1cnc(NCC2CNCCOC2)cn1 (stereo not drawn) [Compound 347] | < 50% |

| Structure (SMILES) | activation at 5 µM |
| --- | --- |
| CCOc1cc2nn(C)cc2cc1C(=O)Nc1cnc(NC2CCNCC2C)cn1 (stereo not drawn) [Compound 348] | 50 to 75% |
| CCOc1cc2nn(C)cc2cc1C(=O)Nc1cnc(NCC2COCCN2)cn1 (stereo not drawn) [Compound 349] | < 50% |
| CCOc1cc2nn(C)cc2cc1C(=O)Nc1cnc(N2CCC3(CC2)CNCCO3)cn1 [Compound 350] | 50 to 75% |
| CCOc1cc2nn(C)cc2cc1C(=O)Nc1cnc(N2CCCNCC2C)cn1 (stereo not drawn) [Compound 351] | < 50% |
| CCOc1cc2nn(C)cc2cc1C(=O)Nc1cnc(N2CCC3(CCNCC3)C2)cn1 [Compound 352] | > 75% |
| CCOc1cc2nn(C)cc2cc1C(=O)Nc1cnc(N2CCCC(CCN)C2)cn1 (stereo not drawn) [Compound 353] | < 50% |
| CCOc1cc2nn(C)cc2cc1C(=O)Nc1cnc(NCC2CNCCO2)cn1 (stereo not drawn) [Compound 354] | < 50% |
| CCOc1cc2nn(C)cc2cc1C(=O)Nc1cnc(NC2CCNCC2F)cn1 (stereo not drawn) [Compound 355] | > 75% |
| CCOc1cc2nn(C)cc2cc1C(=O)Nc1cnc(NC(C)C2CCNCC2)cn1 (stereo not drawn) [Compound 356] | < 50% |
| CCOc1cc2nn(C)cc2cc1C(=O)Nc1cnc(N2CCOC3(CCNCC3)C2)cn1 [Compound 357] | < 50% |
| CCOc1cc2nn(C)cc2cc1C(=O)Nc1cnc(NCCC2CCCCN2)cn1 (stereo not drawn) [Compound 358] | 50 to 75% |
| CCOc1cc2nn(C)cc2cc1C(=O)Nc1cnc(NC[C@@H]2C[C@H]3CC[C@@H](C2)N3)cn1 [Compound 359] | < 50% |
| CCOc1cc2nn(C)cc2cc1C(=O)Nc1cnc(N2CCN[C@@H](C(C)C)C2)cn1 [Compound 360] | > 75% |
| CCOc1cc2nn(C)cc2cc1C(=O)Nc1cnc(N2CCC(NC)C2)cn1 (stereo not drawn) [Compound 361] | > 75% |
| CCOc1cc2nn(C)cc2cc1C(=O)Nc1cnc(NCCCN2CCNCC2)cn1 [Compound 362] | < 50% |
| CCOc1cc2nn(C)cc2cc1C(=O)Nc1cnc(N2C[C@H]3CNC[C@H]3C2)cn1 [Compound 363] | > 75% |
| CCOc1cc2nn(C)cc2cc1C(=O)Nc1cnc(NC[C@@H]2CCNC2)cn1 [Compound 364] | 50 to 75% |
| CCCNCCNc1cnc(NC(=O)c2cc3cn(C)nc3cc2OCC)cn1 [Compound 365] | > 75% |
| CCOc1cc2nn(C)cc2cc1C(=O)Nc1cnc(N[C@@H]2C[C@H]3CC[C@@H](C2)N3)cn1 [Compound 366] | > 75% |
| CCOc1cc2nn(C)cc2cc1C(=O)Nc1cnc(N[C@H]2C[C@H]3CC[C@@H](C2)N3)cn1 [Compound 367] | > 75% |
| CCOc1cc2nn(C)cc2cc1C(=O)Nc1cnc(N2CCNCC2)cn1 [Compound 370] | > 75% |
| CCOc1cc2nn(C)cc2cc1C(=O)Nc1cnc(N2CCC(N)CC2)cn1 [Compound 371] | > 75% |
| CCOc1cc2nn(C)cc2cc1C(=O)Nc1cnc(N2CCC(N)C2)cn1 (stereo not drawn) [Compound 372] | > 75% |
| CCOc1cc2nn(C)cc2cc1C(=O)Nc1cnc(NC2CCNCC2)cn1 [Compound 373] | > 75% |
| CCOc1cc2nn(C)cc2cc1C(=O)Nc1cnc(N2CCNC(C)C2)cn1 (stereo not drawn) [Compound 374] | > 75% |
| CCOc1cc2nn(C)cc2cc1C(=O)Nc1cnc(NC2CCCNC2)cn1 (stereo not drawn) [Compound 375] | 50 to 75% |

| Structure (SMILES) | activation at 5 µM |
| --- | --- |
| CCOc1cc2nn(C)cc2cc1C(=O)Nc1cnc(N[C@@H]2CCNC2)cn1 [Compound 376] | > 75% |
| CCOc1cc2nn(C)cc2cc1C(=O)Nc1cnc(N[C@@H]2CCCNC2)cn1 [Compound 377] | 50 to 75% |
| CCOc1cc2nn(C)cc2cc1C(=O)Nc1cnc(NCC2CCCNC2)cn1 (stereo not drawn) [Compound 378] | < 50% |
| CCOc1cc2nn(C)cc2cc1C(=O)Nc1cnc(N[C@@H]2CNC[C@H](F)C2)nc1 [Compound 380] | < 50% |
| CCOc1cc2nn(C)cc2cc1C(=O)Nc1cnc(NCC(F)C2CCNCC2)nc1 (stereo not drawn) [Compound 381] | < 50% |
| CCOc1cc2nn(C)cc2cc1C(=O)Nc1cnc(N2CCNC(C(F)F)C2)nc1 (stereo not drawn) [Compound 382] | < 50% |
| CCOc1cc2nn(C)cc2cc1C(=O)Nc1cnc(NC2CCC23CNC3)nc1 (stereo not drawn) [Compound 383] | < 50% |
| CCOc1cc2nn(C)cc2cc1C(=O)Nc1cnc(NCC[C@H]2C[C@H](N)C2)nc1 [Compound 384] | < 50% |
| CCOc1cc2nn(C)cc2cc1C(=O)Nc1cnc(NCC2C=CCN2)nc1 (stereo not drawn) [Compound 385] | < 50% |
| CCOc1cc2nn(C)cc2cc1C(=O)Nc1cnc(N[C@@H]2CNC[C@@H](F)C2)nc1 [Compound 386] | < 50% |
| CCOc1cc2nn(C)cc2cc1C(=O)Nc1cnc(NCc2nn(C)c3c2CNCC3)nc1 [Compound 388] | < 50% |
| CCOc1cc2nn(C)cc2cc1C(=O)Nc1cnc(NC[C@H](C)NC)nc1 [Compound 390] | < 50% |
| CCOc1cc2nn(C)cc2cc1C(=O)Nc1cnc(NC[C@H]2C[C@@](F)(CN)C2)nc1 [Compound 391] | < 50% |
| CCOc1cc2nn(C)cc2cc1C(=O)Nc1cnc(NC[C@]2(F)C[C@@H](N)C2)nc1 [Compound 392] | < 50% |
| CCOc1cc2nn(C)cc2cc1C(=O)Nc1cnc(NCc2cc3n(n2)CCNC3)nc1 [Compound 393] | < 50% |
| CCOc1cc2nn(C)cc2cc1C(=O)Nc1cnc(NC[C@H]2CNCC(C)(C)O2)nc1 [Compound 394] | < 50% |
| CCOc1cc2nn(C)cc2cc1C(=O)Nc1cnc(NCC2CCNCCC2(F)F)nc1 (stereo not drawn) [Compound 395] | < 50% |
| CCOc1cc2nn(C)cc2cc1C(=O)Nc1cnc(NC2CNCC23CC3)nc1 (stereo not drawn) [Compound 397] | < 50% |
| CCOc1cc2nn(C)cc2cc1C(=O)Nc1cnc(NCCCC2CCCN2)nc1 (stereo not drawn) [Compound 398] | < 50% |
| CCOc1cc2nn(C)cc2cc1C(=O)Nc1cnc(NC2CC3NCCOC3C2)nc1 (stereo not drawn) [Compound 399] | < 50% |
| CCOc1cc2nn(C)cc2cc1C(=O)Nc1cnc(NC[C@H]2CC[C@H](CNC)CC2)nc1 [Compound 400] | < 50% |
| CCOc1cc2nn(C)cc2cc1C(=O)Nc1cnc(NCc2c(C)nn3c2CNCC3)nc1 [Compound 403] | < 50% |
| CCOc1cc2nn(C)cc2cc1C(=O)Nc1cnc(NCC2CC3(CCNC3)CO2)nc1 (stereo not drawn) [Compound 405] | < 50% |
| CCOc1cc2nn(C)cc2cc1C(=O)Nc1cnc(NCC23CC(N)(C2)C3)nc1 [Compound 406] | < 50% |
| CCOc1cc2nn(C)cc2cc1C(=O)Nc1cnc(NC2CNCC2(C)C)nc1 (stereo not drawn) [Compound 407] | < 50% |
| CCOc1cc2nn(C)cc2cc1C(=O)Nc1cnc(NCC2CNC(C)(C)C2)nc1 (stereo not drawn) [Compound 408] | < 50% |
